Laboratory results from patent publication US20250320193A1, “OXOISOINDOLINYL SUBSTITUTED PIPERIDINEDIONE DERIVATIVE AND USE THEREOF” (GLUETACS THERAPEUTICS (SHANGHAI) CO., LTD., priority 2022, published 2025).
Where two headings read alike, the source gives them in different places.

Legend:
[1] = tested on: MM.1S cells (human multiple myeloma cells); experiment: Tumor cell proliferation inhibition, CCK-8; format: cell-based; details: MM1.S
Outline: (§1)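 Cells seeded, then after 24 h exposed to 10 concentrations (top 10 μM, 5-fold serial dilutions) at 37° C, 5% CO2. Viability read with CCK-8 reagent; IC50 derived from growth-inhibition curves.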

[2] = tested on: MDA-MB-231 cells (human breast adenocarcinoma cells); experiment: Tumor cell proliferation inhibition, CCK-8; format: cell-based
Outline: as §1

[3] = tested on: Kasumi-1 (human acute myeloid leukemia cells); experiment: Tumor cell proliferation inhibition, CCK-8; format: cell-based
Outline: as §1

[4] = tested on: CCRF-CEM (human acute lymphoblastic leukemia T-cells); experiment: Tumor cell proliferation inhibition, CCK-8; format: cell-based
Outline: as §1

[5] = molecular target: human Cereblon WT GST-tagged protein (Homo sapiens (Human), UniProt Q96SW2); experiment: CRBN-binding affinity, HTRF (CEREBLON BINDING kit, CISBIO); details: HTRF inhibitory activity
Outline: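 HTRF competition format: test compound displaces Thalidomide-Red from GST-tagged human Cereblon WT, detected with a Eu-labelled anti-GST antibody. Percent CRBN binding inhibition was derived from the 620 nm signal, normalized to solvent-control and protein-free blank wells.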

[6] = molecular target: IKZF3 (Homo sapiens (Human), UniProt Q96SW2+Q9UKT9); experiment: Western blot, substrate protein expression in hPBMC: IKZF3; format: cell-based; details: hPBMC, compound 500 nM, 24 hours, Western blot
Outline: (§2)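 hPBMC, 1×10^6 cells/mL, 24 h compound exposure; RIPA lysis, BCA protein assay, SDS-PAGE, NC membrane immunoblot. Densitometry vs internal control → % protein remaining; degradation % = 100% − remaining; DC50 = conc. at 50% of DMSO band signal.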

[7] = molecular target: GSPT1 (Homo sapiens (Human), UniProt P15170+Q96SW2); experiment: Western blot, substrate protein expression in hPBMC: GSPT1; format: cell-based; details: hPBMC, compound 500 nM, 24 hours, Western blot
Outline: as §2

[8] = tested on: MM.1R cells (dexamethasone-resistant human multiple myeloma cells); experiment: Tumor cell proliferation inhibition, CCK-8; format: cell-based
Outline: as §1

[9] = molecular target: IKZF1 (Homo sapiens (Human), UniProt Q13422+Q96SW2); experiment: Western blot, substrate protein expression in hPBMC: IKZF1; format: cell-based; details: hPBMC, compound 500 nM, 24 hours, Western blot
Outline: as §2

[10] = tested on: CAL-62 (human thyroid carcinoma cells); experiment: Tumor cell proliferation inhibition, CCK-8; format: cell-based
Outline: as §1

[11] = tested on: Jurkat cells (human T-cell leukemia cells); experiment: Tumor cell proliferation inhibition, CCK-8; format: cell-based
Outline: as §1

[12] = tested on: H146 cells (human small cell lung carcinoma cells); experiment: Tumor cell proliferation inhibition, CCK-8; format: cell-based
Outline: as §1

[13] = tested on: TMD8 cells (human diffuse large B-cell lymphoma cells); experiment: Tumor cell proliferation inhibition, CCK-8; format: cell-based
Outline: as §1

[14] = MM.1S cells, CCK-8, read-out: inhibitory activity (IC50, nM) MM.1S
[15] = MDA-MB-231 cells, CCK-8, read-out: inhibitory activity (IC50, nM) MDA-MB-231
[16] = Kasumi-1 cells, CCK-8, read-out: inhibitory activity (IC50, nM) Kasumi-1
[17] = CCRF-CEM cells, CCK-8, read-out: inhibitory activity (IC50, nM) CCRF-CEM
[18] = MM.1R cells, CCK-8, read-out: inhibitory activity (IC50, nM) MM.1R
[19] = CAL-62 cells, CCK-8, read-out: inhibitory activity (IC50, nM) CAL-62
[20] = Jurkat cells, CCK-8, read-out: inhibitory activity (IC50, nM) Jurkat
[21] = NCI-H146, H146 cells, CCK-8, read-out: inhibitory activity (IC50, nM) H146
[22] = TMD8 cells, CCK-8, read-out: inhibitory activity (IC50, nM) TMD8

Sequence of IKZF1 (Q13422 whole entry): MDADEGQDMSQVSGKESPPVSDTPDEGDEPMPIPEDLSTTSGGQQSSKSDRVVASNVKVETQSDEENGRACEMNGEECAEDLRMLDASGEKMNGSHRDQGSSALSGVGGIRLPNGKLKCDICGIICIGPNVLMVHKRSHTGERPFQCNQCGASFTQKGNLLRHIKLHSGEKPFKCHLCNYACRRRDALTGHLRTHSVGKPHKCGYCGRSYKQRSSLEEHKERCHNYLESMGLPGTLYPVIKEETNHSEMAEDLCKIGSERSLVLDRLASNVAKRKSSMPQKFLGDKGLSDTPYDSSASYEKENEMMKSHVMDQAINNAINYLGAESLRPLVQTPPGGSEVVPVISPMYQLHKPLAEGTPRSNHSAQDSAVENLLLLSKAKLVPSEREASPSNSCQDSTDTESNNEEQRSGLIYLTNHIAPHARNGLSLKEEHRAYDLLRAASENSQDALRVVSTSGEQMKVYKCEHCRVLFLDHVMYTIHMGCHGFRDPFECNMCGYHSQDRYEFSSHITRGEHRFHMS
Sequence of IKZF1 (Q96SW2 whole entry): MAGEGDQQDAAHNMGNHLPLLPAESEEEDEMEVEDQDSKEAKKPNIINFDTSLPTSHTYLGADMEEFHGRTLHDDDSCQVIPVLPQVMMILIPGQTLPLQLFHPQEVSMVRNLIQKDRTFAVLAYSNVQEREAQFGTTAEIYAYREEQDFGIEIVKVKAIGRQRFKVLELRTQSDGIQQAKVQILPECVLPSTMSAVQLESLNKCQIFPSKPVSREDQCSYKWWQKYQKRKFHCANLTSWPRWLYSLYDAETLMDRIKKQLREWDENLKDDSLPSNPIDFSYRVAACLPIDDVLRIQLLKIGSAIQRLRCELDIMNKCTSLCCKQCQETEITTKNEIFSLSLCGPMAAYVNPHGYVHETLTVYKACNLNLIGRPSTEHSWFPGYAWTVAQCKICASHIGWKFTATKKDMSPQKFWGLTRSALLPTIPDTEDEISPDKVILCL
Sequence of IKZF1 (Q16531 whole entry partner): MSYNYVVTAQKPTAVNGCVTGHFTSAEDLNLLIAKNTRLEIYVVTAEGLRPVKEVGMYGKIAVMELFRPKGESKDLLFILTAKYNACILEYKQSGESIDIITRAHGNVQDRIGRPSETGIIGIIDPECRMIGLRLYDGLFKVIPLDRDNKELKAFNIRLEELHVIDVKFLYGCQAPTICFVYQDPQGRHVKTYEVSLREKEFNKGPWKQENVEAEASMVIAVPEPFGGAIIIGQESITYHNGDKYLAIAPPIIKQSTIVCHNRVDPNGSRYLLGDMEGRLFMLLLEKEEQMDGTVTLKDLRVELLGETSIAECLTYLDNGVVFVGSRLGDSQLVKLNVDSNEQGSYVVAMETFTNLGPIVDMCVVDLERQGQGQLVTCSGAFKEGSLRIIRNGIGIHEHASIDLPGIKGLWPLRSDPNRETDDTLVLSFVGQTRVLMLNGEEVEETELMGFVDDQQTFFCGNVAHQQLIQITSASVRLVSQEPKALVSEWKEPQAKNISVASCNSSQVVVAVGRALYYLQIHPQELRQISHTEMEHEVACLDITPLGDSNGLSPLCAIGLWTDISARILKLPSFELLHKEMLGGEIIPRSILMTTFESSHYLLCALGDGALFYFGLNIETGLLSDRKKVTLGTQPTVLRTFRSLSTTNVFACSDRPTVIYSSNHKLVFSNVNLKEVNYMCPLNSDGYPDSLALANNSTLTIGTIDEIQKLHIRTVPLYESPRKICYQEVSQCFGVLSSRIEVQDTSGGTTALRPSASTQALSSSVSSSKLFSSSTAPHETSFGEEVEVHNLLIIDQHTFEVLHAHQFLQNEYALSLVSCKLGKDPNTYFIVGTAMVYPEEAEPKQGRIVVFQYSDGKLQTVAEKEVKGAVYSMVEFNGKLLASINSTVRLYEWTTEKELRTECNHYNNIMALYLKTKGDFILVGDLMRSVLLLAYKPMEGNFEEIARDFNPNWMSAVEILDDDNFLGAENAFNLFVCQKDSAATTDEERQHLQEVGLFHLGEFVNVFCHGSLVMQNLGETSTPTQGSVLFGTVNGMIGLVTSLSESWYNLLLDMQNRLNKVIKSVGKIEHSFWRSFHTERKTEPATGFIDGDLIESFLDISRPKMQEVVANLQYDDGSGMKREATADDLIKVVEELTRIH
Sequence of IKZF3 (Q9UKT9 whole entry): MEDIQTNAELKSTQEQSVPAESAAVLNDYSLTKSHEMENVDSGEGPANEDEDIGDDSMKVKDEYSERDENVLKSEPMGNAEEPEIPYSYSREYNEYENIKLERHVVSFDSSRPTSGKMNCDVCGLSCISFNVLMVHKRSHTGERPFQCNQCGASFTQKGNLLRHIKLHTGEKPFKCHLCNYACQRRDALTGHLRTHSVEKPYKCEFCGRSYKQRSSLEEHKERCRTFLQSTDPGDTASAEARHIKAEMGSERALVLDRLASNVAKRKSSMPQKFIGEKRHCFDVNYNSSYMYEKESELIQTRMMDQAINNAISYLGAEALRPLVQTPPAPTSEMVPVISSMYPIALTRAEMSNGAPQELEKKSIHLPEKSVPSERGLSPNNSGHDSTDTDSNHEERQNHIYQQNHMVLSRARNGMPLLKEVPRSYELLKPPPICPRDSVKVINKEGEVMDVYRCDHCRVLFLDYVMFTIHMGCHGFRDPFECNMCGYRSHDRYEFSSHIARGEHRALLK
Sequence of IKZF3 (Q96SW2 whole entry): as the sequence (Q96SW2 whole entry) above
Sequence of IKZF3 (Q16531 whole entry partner): as the sequence (Q16531 whole entry partner) above
Sequence of GSPT1 (P15170 whole entry): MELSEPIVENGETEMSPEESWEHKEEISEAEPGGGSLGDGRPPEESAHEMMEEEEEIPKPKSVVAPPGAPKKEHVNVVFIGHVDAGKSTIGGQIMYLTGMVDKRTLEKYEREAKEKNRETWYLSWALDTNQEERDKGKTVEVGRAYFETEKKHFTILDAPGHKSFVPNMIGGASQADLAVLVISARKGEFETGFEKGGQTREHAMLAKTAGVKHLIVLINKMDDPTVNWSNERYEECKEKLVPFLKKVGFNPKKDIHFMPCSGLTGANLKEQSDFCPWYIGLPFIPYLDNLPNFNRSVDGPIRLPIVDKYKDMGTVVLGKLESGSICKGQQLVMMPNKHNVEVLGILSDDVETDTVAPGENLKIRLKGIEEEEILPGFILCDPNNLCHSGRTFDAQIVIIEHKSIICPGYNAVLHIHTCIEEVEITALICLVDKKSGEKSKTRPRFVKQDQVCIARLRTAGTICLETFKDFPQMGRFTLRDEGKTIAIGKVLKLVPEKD
Sequence of GSPT1 (Q96SW2 whole entry): as the sequence (Q96SW2 whole entry) above
Sequence of GSPT1 (Q16531 whole entry partner): as the sequence (Q16531 whole entry partner) above
Sequence of human Cereblon WT GST-tagged protein (Q96SW2 whole entry): as the sequence (Q96SW2 whole entry) above

IC50 [1, 14] [nM] | IC50 [2, 15] [nM] | IC50 [3, 16] [nM] | IC50 [4, 17] [nM] | IC50 [5] [µM] | IC50 [8, 18] [nM] | IC50 [10, 19] [nM] | IC50 [11, 20] [nM] | IC50 [12, 21] [nM] | Structure (SMILES) | substrate protein remaining % IKZF3 [6] | substrate protein remaining % GSPT1 [7] | substrate protein remaining % IKZF1 [9] | other results
100 to 500 | 100 to 500 | 50 to 100 | 10 to 50 | 0.5 to 1 | – | – | – | – | O=C1CCC(N2Cc3cc(CN4CCN(C(c5ccccc5)c5ccccc5)CC4)cc(F)c3C2=O)C(=O)N1 (stereo not drawn) [GT-03467, 3-(5-((4-benzhydrylpiperazin-1-yl)methyl)-7-fluoro-1-oxoisoindolin-2-yl)piperidine-2,6-dione] | – | – | – | –
500 to 1000 | – | – | 10 to 50 | 1 to 1.9 | 100 to 500 | – | – | – | O=C1CCC(N2Cc3cc(CN4CCN(C(c5ccc(Cl)cc5)c5ccc(Cl)cc5)CC4)ccc3C2=O)C(=O)N1 (stereo not drawn) [GT-03566, 3-(5-((4-(bis(4-chlorophenyl)methyl)piperazin-1-yl)methyl)-1-oxoisoindolin-2-yl)piperidine-2,6-dione] | A (A represents 0% ≤ substrate protein remaining % ≤ 50%) | A (A represents 0% ≤ substrate protein remaining % ≤ 50%) | A (A represents 0% ≤ substrate protein remaining % ≤ 50%) | –
50 to 100 | – | – | 10 to 50 | – | 50 to 100 | 50 to 100 | – | – | O=C1CCC(N2Cc3cc(CN4CCN(C(c5ccc(Cl)cc5)c5ccc(Cl)cc5)CC4)c(F)cc3C2=O)C(=O)N1 (stereo not drawn) [GT-03699, 3-(5-((4-(bis(4-chlorophenyl)methyl)piperazin-1-yl)methyl)-6-fluoro-1-oxoisoindolin-2-yl)piperidine-2,6-dione] | A (A represents 0% ≤ substrate protein remaining % ≤ 50%) | A (A represents 0% ≤ substrate protein remaining % ≤ 50%) | B (B represents substrate protein remaining % > 50%) | –
10 to 50 | 50 to 100 | 50 to 100 | 1 to 10 | < 0.5 | 10 to 50 | 10 to 50 | 100 to 500 | 100 to 500 | O=C1CCC(N2Cc3cc(CN4CCN(C(c5cccc(F)c5)c5cccc(F)c5)CC4)cc(F)c3C2=O)C(=O)N1 (stereo not drawn) [GT-03704, 3-(5-((4-(bis(3-fluorophenyl)methyl)piperazin-1-yl)methyl)-7-fluoro-1-oxoisoindolin-2-yl)piperidine-2,6-dione] | A (A represents 0% ≤ substrate protein remaining % ≤ 50%) | A (A represents 0% ≤ substrate protein remaining % ≤ 50%) | B (B represents substrate protein remaining % > 50%) | –
10 to 50 | – | – | 10 to 50 | < 0.5 | 10 to 50 | – | – | – | O=C1CCC(N2Cc3c(ccc(CN4C[C@@H]5C[C@H]4CN5C(c4ccccc4)c4ccccc4)c3F)C2=O)C(=O)N1 (stereo partly drawn) [GT-03724, 3-(5-(((1S,4S)-5-benzhydryl-2,5-diazabicyclo[2.2.1]heptan-2-yl)methyl)-4-fluoro-1-oxoisoindolin-2-yl)piperidine-2,6-dione] | A (A represents 0% ≤ substrate protein remaining % ≤ 50%) | A (A represents 0% ≤ substrate protein remaining % ≤ 50%) | A (A represents 0% ≤ substrate protein remaining % ≤ 50%) | –
10 to 50 | 100 to 500 | – | 10 to 50 | < 0.5 | – | 10 to 50 | 50 to 100 | 100 to 500 | O=C1CCC(N2Cc3cc(CN4CCN(C(c5ccccc5)c5cccnc5)CC4)c(F)cc3C2=O)C(=O)N1 (stereo not drawn) [GT-04251, 3-(6-fluoro-1-oxo-5-((4-(phenyl(pyridin-3-yl)methyl)piperazin-1-yl)methyl)isoindolin-2-yl)piperidine-2,6-dione] | A (A represents 0% ≤ substrate protein remaining % ≤ 50%) | A (A represents 0% ≤ substrate protein remaining % ≤ 50%) | A (A represents 0% ≤ substrate protein remaining % ≤ 50%) | IC50 [13, 22]: 100 to 500 nM
1 to 10 | 50 to 100 | – | – | 0.5 to 1 | 1 to 10 | 1 to 10 | 50 to 100 | 10 to 50 | O=C1CCC(N2Cc3cc(CN4CCN([C@H](c5ccccc5)c5ccccn5)CC4)ccc3C2=O)C(=O)N1 (stereo partly drawn) [GT-04523, 3-(1-oxo-5-((4-((R)-phenyl(pyridin-2-yl)methyl)piperazin-1-yl)methyl)isoindolin-2-yl)piperidine-2,6-dione] | A (A represents 0% ≤ substrate protein remaining % ≤ 50%) | A (A represents 0% ≤ substrate protein remaining % ≤ 50%) | A (A represents 0% ≤ substrate protein remaining % ≤ 50%) | IC50 [13, 22]: 500 to 1000 nM
10 to 50 | 500 to 1000 | – | – | 0.5 to 1 | 10 to 50 | 10 to 50 | 10 to 50 | 100 to 500 | O=C1CCC(N2Cc3cc(CN4CCN([C@@H](c5ccccc5)c5ccccn5)CC4)ccc3C2=O)C(=O)N1 (stereo partly drawn) [GT-04524, 3-(1-oxo-5-((4-((S)-phenyl(pyridin-2-yl)methyl)piperazin-1-yl)methyl)isoindolin-2-yl)piperidine-2,6-dione] | A (A represents 0% ≤ substrate protein remaining % ≤ 50%) | A (A represents 0% ≤ substrate protein remaining % ≤ 50%) | A (A represents 0% ≤ substrate protein remaining % ≤ 50%) | –
– | – | – | – | – | – | – | – | – | Nc1cccc2c1CN(C1CCC(=O)NC1=O)C2=O (stereo not drawn) [lenalidomide, reference compound] | – | – | – | IC50 ([11]; Jurkat, read-out: inhibitory activity (IC50, nM) Jurkat): > 10000 nM; IC50 ([10]; CAL-62, read-out: inhibitory activity (IC50, nM) CAL-62): > 10000 nM; IC50 ([1]; read-out: inhibitory activity (IC50, nM) MM.1S): > 10000 nM; IC50 ([12]; NCI-H146, read-out: inhibitory activity (IC50, nM) H146): > 10000 nM; IC50 ([2]; MDA-MB-231, read-out: inhibitory activity (IC50, nM) MDA-MB-231): > 10000 nM; IC50 ([3]; Kasumi 1, read-out: inhibitory activity (IC50, nM) Kasumi-1): > 10000 nM; IC50 ([8]; MM.1R, read-out: inhibitory activity (IC50, nM) MM.1R): > 10000 nM; IC50 ([4]; CCRF-CEM, read-out: inhibitory activity (IC50, nM) CCRF-CEM): > 10000 nM; IC50 ([13]; TMD8, read-out: inhibitory activity (IC50, nM) TMD8): > 10000 nM
500 to 1000 | > 10000 | > 10000 | 5000 to 10000 | – | > 10000 | > 10000 | > 10000 | > 10000 | Nc1cccc2c1C(=O)N(C1CCC(=O)NC1=O)C2=O (stereo not drawn) [pomalidomide, reference compound] | – | – | – | IC50 [13, 22]: 5000 to 10000 nM

Structure (SMILES) | IC50 [1, 14] [nM] | IC50 [2, 15] [nM] | IC50 [3, 16] [nM] | IC50 [4, 17] [nM] | IC50 [5] [µM] | IC50 [8, 18] [nM] | IC50 [10, 19] [nM] | IC50 [11, 20] [nM] | IC50 [12, 21] [nM] | substrate protein remaining % IKZF3 [6] | substrate protein remaining % GSPT1 [7] | substrate protein remaining % IKZF1 [9] | other results
O=C1CCC(N2Cc3cc(CN4C5CCC4CN(C(c4ccccc4)c4ccccc4)C5)ccc3C2=O)C(=O)N1 (stereo not drawn) [GT-03837, 3-(5-((3-benzhydryl-3,8-diazabicyclo[3.2.1]octan-8-yl)methyl)-1-oxoisoindolin-2-yl)piperidine-2,6-dione] | 10 to 50 | – | – | – | < 0.5 | 500 to 1000 | – | – | – | A (A represents 0% ≤ substrate protein remaining % ≤ 50%) | A (A represents 0% ≤ substrate protein remaining % ≤ 50%) | B (B represents substrate protein remaining % > 50%) | –
O=C1CCC(N2Cc3cc(CN4C5CCC4CN(C(c4ccccc4)c4ccccc4)C5)c(F)cc3C2=O)C(=O)N1 (stereo not drawn) [GT-03839, 3-(5-((3-benzhydryl-3,8-diazabicyclo[3.2.1]octan-8-yl)methyl)-6-fluoro-1-oxoisoindolin-2-yl)piperidine-2,6-dione] | 10 to 50 | 50 to 100 | 10 to 50 | 10 to 50 | 1 to 1.9 | 10 to 50 | 10 to 50 | – | 500 to 1000 | A (A represents 0% ≤ substrate protein remaining % ≤ 50%) | A (A represents 0% ≤ substrate protein remaining % ≤ 50%) | B (B represents substrate protein remaining % > 50%) | –
